From patent US20250122193A1, “NOVEL PYRIDOCARBAZOLIUM COMPOUNDS AND MEDICAL USES THEREOF” (MyCural Therapeutics, priority 2021, published 2025)

Assays:
P493-6 cells = test: cell cycle distribution by flow cytometry, P493-6; format: cell-based; conditions: 5 μM, 48 hours
Description: FIG. 4: MYCMI-7 induces apoptosis in malignant cells and growth arrest in normal cells. A) Cell cycle distribution analysis by flow cytometry of MYC-regulated P493-6 cells and normal rat embryo fibroblasts (REFs). Left panel, P493-6 synchronized in G0 by 24 hours treatment of […] doxycycline. Doxycycline was removed and the cells were harvested 48 hours after the addition of fresh medium containing DMSO or 5 μM MYCMI-7. Right panel, flow cytometry analysis of normal REFs treated with DMSO or 5 μM MYCMI-7. B) Apoptosis assay using the Cell Death Detection ELISA^plus kit. Left panel, immortalized Rat1 fibroblasts with different MYC status after 24 hours of 5 μM MYCMI-7 treatment, middle panel and right panels, normal REFs and normal peripheral blood lymphocytes, respectively, after 24 and 48 hours of 5 μM MYCMI-7 treatment. […] Viability was measured by trypan blue exclusion assay. F) Cell growth measured with Cyt62 assay of primary normal human epidermal melanocytes (NHEM) treated for 72 hours with MYCMI-7, G) Viability measured by trypan blue exclusion assay of NHEM after treatment for 72 hours with MYCMI-7.
Flow cytometry: P493-6 cells were synchronized using 1 μg/ml doxycycline. […] Cells were stained with propidium iodide (Sigma) and 1×10^4 cells per treatment were analyzed using a FACScan and CellQuestPro (Becton Dickinson). […]

[1] = biological target: T1, recombinant bHLHZip domain of the MYC protein (Homo sapiens, UniProt P01106); test: surface plasmon resonance (SPR), MYC bHLHZip; format: binding
T1 construct: using the recombinant bHLHZip domain of the MYC protein; 6xHis (N); made in house; host or cells: E. coli BL21 (DE3)
T1 sequence (P01106 368-454 limits assumed): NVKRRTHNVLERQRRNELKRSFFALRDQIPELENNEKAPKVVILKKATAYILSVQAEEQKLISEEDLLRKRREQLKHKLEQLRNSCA
Description: FIG. 1: MYCMI-7 (Compound Example 1) inhibits the MYC:MAX interaction in cells, bind MYC in vitro, and blocks MYC function. A) Molecular structure of MYCMI-7. B-E) split Gaussia luciferase (GLuc) assay. MYC or MYCN and MAX Gluc constructs were co-transfected into HeLa cells together with a firefly luciferase vector. 24 hours post transfection cells were treated with compounds, and after another 17-24 hours cells were harvested and both GLuc and firefly luciferase activities were measured. The mean of three different experiments is shown. Treatment with: B) 5 μM of MYCMI-7, 64 μM 10058-F4 or 5 μM JQ1, respectively, C) 6.5 μM MYCMI-7 on cells expressing MYC:MAX GLuc vs. GCN4:GCN4 GLuc, D) 5 μM MYCMI-7 and 5 μM ellipticine. E) 5 μM MYCMI-7 for various time points. F) in situ proximity ligation assay (isPLA). […] MYC:GAL4 was used as negative control in the isPLA assay. G) Quantification of isPLA dots. (H) Co-immunoprecipitation (co-IP) of endogenous MYC and MAX proteins from MCF7 cells after treatment with 5 μM MYCMI-7 at various times. IP=immunoprecipitation; W=western blot. […] J) MYC target gene ODC1 expression after treatment with 5 μM MYCMI-7, quantified by qPCR. […] L) Recombinant MYC bHLHZip protein domain immobilized onto a CM5 chip was subjected to various concentrations of MYCMI-7 and the complex of MYCbHLHZip-MYCMI-7 was measured as response units by SPR. […]

MYC:MAX interaction = MYC:MAX interaction (Homo sapiens, UniProt P01106); test: co-immunoprecipitation of endogenous MYC and MAX; format: cell-based; conditions: 5 μM, MCF7 cells
Sequence of MYC:MAX interaction (P01106 16-454): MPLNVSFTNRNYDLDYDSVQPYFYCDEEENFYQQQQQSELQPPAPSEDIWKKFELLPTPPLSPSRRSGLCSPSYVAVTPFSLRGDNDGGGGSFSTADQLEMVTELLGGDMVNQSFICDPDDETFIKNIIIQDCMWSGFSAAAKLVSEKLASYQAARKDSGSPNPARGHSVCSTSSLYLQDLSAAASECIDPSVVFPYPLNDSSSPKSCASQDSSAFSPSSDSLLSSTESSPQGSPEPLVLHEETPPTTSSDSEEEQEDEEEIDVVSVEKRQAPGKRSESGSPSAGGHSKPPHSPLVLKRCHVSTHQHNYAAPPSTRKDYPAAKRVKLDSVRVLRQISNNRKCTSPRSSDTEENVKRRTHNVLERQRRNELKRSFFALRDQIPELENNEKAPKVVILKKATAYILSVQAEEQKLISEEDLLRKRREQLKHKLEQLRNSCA
Description: FIG. 1: MYCMI-7 (Compound Example 1) inhibits the MYC:MAX interaction in cells, bind MYC in vitro, and blocks MYC function. A) Molecular structure of MYCMI-7. B-E) split Gaussia luciferase (GLuc) assay. MYC or MYCN and MAX Gluc constructs were co-transfected into HeLa cells together with a firefly luciferase vector. 24 hours post transfection cells were treated with compounds, and after another 17-24 hours cells were harvested and both GLuc and firefly luciferase activities were measured. The mean of three different experiments is shown. Treatment with: B) 5 μM of MYCMI-7, 64 μM 10058-F4 or 5 μM JQ1, respectively, C) 6.5 μM MYCMI-7 on cells expressing MYC:MAX GLuc vs. GCN4:GCN4 GLuc, D) 5 μM MYCMI-7 and 5 μM ellipticine. E) 5 μM MYCMI-7 for various time points. F) in situ proximity ligation assay (isPLA). […] G) Quantification of isPLA dots. […] J) MYC target gene ODC1 expression after treatment with 5 μM MYCMI-7, quantified by qPCR. […] L) Recombinant MYC bHLHZip protein domain immobilized onto a CM5 chip was subjected to various concentrations of MYCMI-7 and the complex of MYCbHLHZip-MYCMI-7 was measured as response units by SPR. […]
For western blot equal amounts of proteins ([…]) were separated on a 4-12% SDS-PAGE gel. Proteins were transferred to Immobilion-P membrane (Millipore) and detected by immunostaining and chemoluminescence (Immobilion western HRP substrate; Millipore). […]

Structure (SMILES): CCN(CC)CC[n+]1ccc2c(C)c3[nH]c4ccccc4c3c(C)c2c1 [MYCMI-7, 2-(5,11-Dimethyl-6H-25-pyrido[4,3-b]carbazol-2-yl)-N,N-diethylethanamine bromide]
- G1/S ratio compared to DMSO (P493-6 cells): higher G1/S ratio
- cell death (sub-G1 cells) (P493-6 cells): strongly induced cell death
- binding to recombinant MYC by SPR [1]: binds directly to MYC
- Kd ([1]; SPR, Langmuir 1:1 analysis): ~4 µM
- MYC:MAX interaction by co-IP (MYC:MAX interaction; 1 hour after treatment): decreased
- MYC:MAX interaction by co-IP (MYC:MAX interaction; 4 hours): reduced drastically
